Assay results from patent US9045793B2, “Method of regulating the expression level of survival of motor neuron 1” (KAOHSIUNG MEDICAL UNIVERSITY, priority 2011, dated 2015).
Peptide text beside a SMILES is read from it. * marks the point of attachment. Cbz = O=C(OCc1ccccc1)*

Tests used:
[1] = test system: SMN protein in NSC34 cells; assay: Cellular SMN protein level after LDN-57444 treatment (Western blot); format: cell-based; conditions: for SMN protein expression level increase compared to the vehicle group: 5 μM; for SMN protein increase: 10 μM
Protocol: (§1) Western blot analysis and immunohistochemical staining were performed as described previously. The primary antibodies used in this study were β-actin (1:2,000, Santa Cruz, 1-19), SMN (1:1,000, Santa Cruz, SC-32313), Gemin 2, Gemin 3 and Gemin 5 polyclonal antibody (1:200, Santa Cruz), UCHL1 monoclonal antibodies (1:2,000, Calbiochem.), HA-tag (1:2,000, Sigma), FITC-conjugated anti-mouse, alkaline phosphatase-conjugated anti-rabbit antibodies (1:500, Jackson ImmunoResearch Lab.) and anti-EGFP rabbit polyclonal antibody (1:5,000, produced in-house).
The cellular function of UCHL1 on SMN protein was further characterized with an over-expression assay. The UCHL1 was tagged with HA tag and over expressed in HEK293, p19 and NSC34 cells to evaluate the cellular function. […] The regulatory effect of UCHL1 was also confirmed with UCHL1 specific inhibitor (FIGS. 5A and 5B). SMN protein could effectively elevate expression level at 5 μM after LDN-57444 treatment for 8 (38%), 16 (42%), 24 (43%) and 48 (46%) hours compared to the vehicle group (FIGS. 5A and 5B).

[2] = test system: nucleus gems in NSC34 cells; assay: Nucleus gems count by immunofluorescence staining (anti-Gemin 2); format: cell-based; conditions: for increase of gems number per one hundred cells comparing to vehicle: NSC34 cells, 10 μM; for Total number of nucleus gems per 100 cells: NSC-34 cells
Protocol: The cellular expression localization of UCHL1 and SMN was determined by immunofluorescence as previously described (Hsu, S. H. et al. (2004) Exp Cell Res, 294, 185-198). HEK 293 and NSC34 cells were cultured on coverslides pre-coated with poly-L-lysine for 16 hours. After washing with cold PBS, cells were fixed with 2% paraformaldehyde in PBS for 30 minutes on ice, and then the slides were washed with PBS for 30 minutes. Cells were permeabilized with buffer containing 0.2% Triton X-100 and 1% NGS in PBS for 20 minutes on ice, and then the slides were washed with PBS to remove excess detergent. Cells were then incubated in anti-EGFP (or anti-HA) and anti-SMN polyclonal antibody (1:200) for 1 hour at room temperature. After washing cells with PBS for 30 minutes, FITC-conjugated […] anti-rabbit and -mouse polyclonal antibody (1:300) was added and the cells were incubated for another 1 hour at room temperature in a humid chamber. Cells were finally counterstained with DAPI to localize the nucleus and observed by confocal microscopy.
In additional to the use of specific UCHL1 inhibitor, the specific shRNAi constructs for UCHL1 were also used to monitor the regulatory effects of UCHL1 on SMN protein. […] The knockdown efficiency of these shRNAi constructs to UCHL1 was 25, 70 and 47% of vector control and the SMN protein was increased 32, 46 and 47% (FIG. 5D). […] The cellular function of elevated SMN was also examined with nucleus gems by immuno-fluorescence staining (FIG. 5E). The nucleus gems stained with anti-Gemin 2 antibody were counted for one hundred NSC34 treated with vehicle or LDN-57444 for 24 hours and 48 hours.

[3] = test system: SMN protein in SMA patients' skin fibroblast cells; assay: Cellular SMN protein level in SMA patients' skin fibroblast cells; format: cell-based, human
Protocol: as §1
In order to investigate the possibility of therapeutic application, the UCHL1 specific inhibitor was also applied to the SMA patients' skin fibroblast cells. Type II and type III SMA skin fibroblast cells were treated with MG132, a proteasome inhibitor, and LDN-57444.

[4] = test system: ubiquitinated SMN protein in NSC34 cells; assay: Cellular ubiquitination of SMN (anti-SMN immunoprecipitation, anti-ubiquitin blot); format: cell-based; conditions: different concentrations of inhibitor
Protocol: Immunoprecipitation assays were performed as previously described with some modifications. Cells with endogenous or ectopically expressed UCHL1 were lysed with RIPA buffer containing 0.2% SDS. After sonication, the lysate was diluted with modified RIPA containing 1% NP-40 for immunoprecipitation. Anti-UCHL1 or anti-SMN antibodies were used to immunoprecipitate the protein. The re-suspended IP complexes were then analyzed by Western blot.
Next, to determine the functional significance of this interaction, purified UCHL1 tagged with 6×His was co-incubated with SMN immunoprecipitate and in vitro ubiquitination assay was performed. […] The SMN protein complex was immunoprecipitated from total cell extract treated with different concentrations of UCHL1 inhibitor and the level of ubiquitinated SMN was determined by the use of anti-ubiquitin antibody.

For `CC(=O)O/N=C1\C(=O)N(Cc2cc(Cl)ccc2Cl)c2ccc(Cl)cc21` [LDN-57444], the “SMN protein expression level increase compared to the vehicle group” value (“SMN protein expression level increase” below) ([1]; 8 hours) was 38%, the “SMN protein expression level increase” value ([1]; 16 hours) was 42% and the “SMN protein expression level increase” value ([1]; 24 hours) was 43%. For the same compound, the “SMN protein expression level increase” value ([1]; 48 hours) was 46%, the SMN protein increase ([1]; 8 hours) was 40% and the SMN protein increase ([1]; 16 hours) was 56%. The SMN protein increase ([1]; 24 hours) was 83%, the SMN protein increase ([1]; 48 hours) was 53% and the “SMN protein level, time course at high dosage” value ([1]; 15 μM) was “time delay increase in SMN protein level until 16 hours”. For the same compound, the “increase of gems number per one hundred cells comparing to vehicle” value ([2]; 24 hours) was 2.25 fold, the “increase of gems number per one hundred cells comparing to vehicle” value ([2]; 48 hours) was 2.54 fold and the “Total number of nucleus gems per 100 cells” value (from here on “Total number … per 100 cells”) ([2]; 10 μmol/l, 24 h) was 142±7.55 per 100 cells. For the same compound, the “Total number … per 100 cells” value ([2]; 10 μmol/l, 48 h, medium and LDN-57444 replaced each day) was 164 ± 8.50 per 100 cells, the “Total number … per 100 cells” value ([2]; 20 μmol/l, 24 h) was 189 ± 10.72 per 100 cells and the “Total number … per 100 cells” value ([2]; 20 μmol/l, 48 h, medium and LDN-57444 replaced each day) was 193 ± 10.21 per 100 cells. The “increase of cellular SMN protein level” value ([3]; type I SMA skin fibroblast cells) was 52-62%, the “increase of cellular SMN protein level” value ([3]; type II SMA skin fibroblast cells) was 31-38% and the “increase of cellular SMN protein level” value ([3]; type III SMA skin fibroblast cells) was 72-87%.

In the case of `CC(C)C[C@@H](C=O)NC(=O)[C@H](CC(C)C)NC(=O)[C@H](CC(C)C)NC(=O)OCc1ccccc1` [MG132] (Cbz-Leu-Leu-Leu-aldehyde), the “level of ubiquitinated SMN protein” value [4] is reported as “same enhancement” and the “cellular SMN protein level (in words)” value ([3]; SMA skin fibroblast cells, positive control) is reported as “increased cellular SMN protein level”.
